Results as given in patent US7074789B2, “Kinase inhibitors” (Amgen Inc., priority 1999, dated 2006).

Tests used:
Type in all cases: biochemical
[1] = target: T1, Zap-70 (Homo sapiens, UniProt P43403); assay: Kinase inhibition assay (33P transfer), Zap-70; conditions: read-out: Zap-1
T1 construct: Kinases are expressed as either kinase domains or full length constructs; made in house
T1 sequence (P43403 1-619): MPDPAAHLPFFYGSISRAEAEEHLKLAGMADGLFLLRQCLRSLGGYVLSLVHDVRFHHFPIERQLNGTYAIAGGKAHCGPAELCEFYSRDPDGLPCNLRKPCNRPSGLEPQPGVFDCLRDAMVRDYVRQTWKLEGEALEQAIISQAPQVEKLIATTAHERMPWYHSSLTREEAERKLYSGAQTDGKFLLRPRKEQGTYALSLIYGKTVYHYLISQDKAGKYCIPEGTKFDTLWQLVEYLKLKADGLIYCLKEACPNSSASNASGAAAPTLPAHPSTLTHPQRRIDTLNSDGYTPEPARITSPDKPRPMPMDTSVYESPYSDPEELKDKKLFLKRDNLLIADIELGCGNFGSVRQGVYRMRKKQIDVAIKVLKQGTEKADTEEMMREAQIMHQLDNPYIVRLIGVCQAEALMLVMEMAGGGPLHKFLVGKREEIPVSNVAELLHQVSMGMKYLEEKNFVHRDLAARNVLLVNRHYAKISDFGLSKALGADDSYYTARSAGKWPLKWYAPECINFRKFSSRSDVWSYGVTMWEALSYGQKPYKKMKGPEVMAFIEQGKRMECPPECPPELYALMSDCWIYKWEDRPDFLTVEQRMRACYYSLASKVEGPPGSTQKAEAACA
Summary of the method: (§1)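 Measured by scintillation: radiolabelled phosphate added by tagged recombinant kinases to poly(Glu,Tyr) 4:1 or poly(Arg,Ser) 3:1 attached to microtiter wells, counted once free label was washed away with 0.5% phosphoric acid.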

[2] = target: T2, AKT (Homo sapiens, UniProt Q9Y243); assay: Kinase inhibition assay (33P transfer), AKT; conditions: Table 2, kinase inhibition class; read-out: AKT3-1
T2 construct: Kinases are expressed as either kinase domains or full length constructs; made in house
T2 sequence (Q9Y243 whole entry, the tested form may be a part): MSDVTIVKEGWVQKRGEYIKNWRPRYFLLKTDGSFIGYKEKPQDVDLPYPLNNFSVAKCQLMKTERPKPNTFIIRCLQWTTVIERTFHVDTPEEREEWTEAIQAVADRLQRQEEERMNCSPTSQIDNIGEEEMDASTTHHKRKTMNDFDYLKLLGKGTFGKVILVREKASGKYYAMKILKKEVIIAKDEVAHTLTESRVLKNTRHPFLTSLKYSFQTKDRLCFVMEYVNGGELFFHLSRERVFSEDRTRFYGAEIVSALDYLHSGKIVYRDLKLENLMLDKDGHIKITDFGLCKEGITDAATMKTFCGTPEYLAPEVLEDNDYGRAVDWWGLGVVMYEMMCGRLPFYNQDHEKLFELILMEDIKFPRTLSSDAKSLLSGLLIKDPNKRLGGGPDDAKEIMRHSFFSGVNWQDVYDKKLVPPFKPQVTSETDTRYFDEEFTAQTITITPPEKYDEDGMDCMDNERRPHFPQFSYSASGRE
Summary of the method: as §1

[3] = target: T3, Lck (Homo sapiens, UniProt P06239); assay: Kinase inhibition assay (33P transfer), Lck; conditions: read-out: Lck-1
T3 construct: Kinases are expressed as either kinase domains or full length constructs; made in house
T3 sequence (P06239 whole entry, species assumed, the tested form may be a part): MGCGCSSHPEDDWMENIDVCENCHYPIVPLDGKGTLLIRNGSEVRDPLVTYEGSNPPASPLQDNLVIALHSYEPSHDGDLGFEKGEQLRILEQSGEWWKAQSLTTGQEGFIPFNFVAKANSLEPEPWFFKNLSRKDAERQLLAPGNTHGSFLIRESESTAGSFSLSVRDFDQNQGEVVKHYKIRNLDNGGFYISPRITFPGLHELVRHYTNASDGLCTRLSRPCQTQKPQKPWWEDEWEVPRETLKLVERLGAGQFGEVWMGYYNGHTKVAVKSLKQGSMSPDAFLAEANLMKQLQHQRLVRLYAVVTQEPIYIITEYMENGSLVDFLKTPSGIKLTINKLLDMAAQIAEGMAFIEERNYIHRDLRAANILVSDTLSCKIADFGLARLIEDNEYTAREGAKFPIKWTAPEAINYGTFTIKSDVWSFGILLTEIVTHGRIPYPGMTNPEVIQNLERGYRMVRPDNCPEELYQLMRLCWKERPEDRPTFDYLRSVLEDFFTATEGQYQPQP
Summary of the method: as §1

[4] = target: T4, ErbB2 (Homo sapiens, UniProt P04626); assay: Kinase inhibition assay (33P transfer), ErbB2; conditions: read-out: ErbB2-2
T4 construct: Kinases are expressed as either kinase domains or full length constructs; made in house
Summary of the method: (§2)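 Radiometric format: recombinant tagged kinase (catalytic domain or whole protein, sometimes combined with regulatory polypeptides) phosphorylates immobilised poly(Glu,Tyr) 4:1 or poly(Arg,Ser) 3:1 using [33P]ATP. Wells are washed in 0.5% phosphoric acid, then counted. IC50 is taken where substrate labelling falls by half.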

[5] = target: T5, PDGFRB (Homo sapiens, UniProt P09619); assay: Kinase inhibition assay (33P transfer), PDGFRB; conditions: read-out: PDGFRB-1
T5 construct: Kinases are expressed as either kinase domains or full length constructs; made in house
T5 sequence (P09619 33-1106, species assumed): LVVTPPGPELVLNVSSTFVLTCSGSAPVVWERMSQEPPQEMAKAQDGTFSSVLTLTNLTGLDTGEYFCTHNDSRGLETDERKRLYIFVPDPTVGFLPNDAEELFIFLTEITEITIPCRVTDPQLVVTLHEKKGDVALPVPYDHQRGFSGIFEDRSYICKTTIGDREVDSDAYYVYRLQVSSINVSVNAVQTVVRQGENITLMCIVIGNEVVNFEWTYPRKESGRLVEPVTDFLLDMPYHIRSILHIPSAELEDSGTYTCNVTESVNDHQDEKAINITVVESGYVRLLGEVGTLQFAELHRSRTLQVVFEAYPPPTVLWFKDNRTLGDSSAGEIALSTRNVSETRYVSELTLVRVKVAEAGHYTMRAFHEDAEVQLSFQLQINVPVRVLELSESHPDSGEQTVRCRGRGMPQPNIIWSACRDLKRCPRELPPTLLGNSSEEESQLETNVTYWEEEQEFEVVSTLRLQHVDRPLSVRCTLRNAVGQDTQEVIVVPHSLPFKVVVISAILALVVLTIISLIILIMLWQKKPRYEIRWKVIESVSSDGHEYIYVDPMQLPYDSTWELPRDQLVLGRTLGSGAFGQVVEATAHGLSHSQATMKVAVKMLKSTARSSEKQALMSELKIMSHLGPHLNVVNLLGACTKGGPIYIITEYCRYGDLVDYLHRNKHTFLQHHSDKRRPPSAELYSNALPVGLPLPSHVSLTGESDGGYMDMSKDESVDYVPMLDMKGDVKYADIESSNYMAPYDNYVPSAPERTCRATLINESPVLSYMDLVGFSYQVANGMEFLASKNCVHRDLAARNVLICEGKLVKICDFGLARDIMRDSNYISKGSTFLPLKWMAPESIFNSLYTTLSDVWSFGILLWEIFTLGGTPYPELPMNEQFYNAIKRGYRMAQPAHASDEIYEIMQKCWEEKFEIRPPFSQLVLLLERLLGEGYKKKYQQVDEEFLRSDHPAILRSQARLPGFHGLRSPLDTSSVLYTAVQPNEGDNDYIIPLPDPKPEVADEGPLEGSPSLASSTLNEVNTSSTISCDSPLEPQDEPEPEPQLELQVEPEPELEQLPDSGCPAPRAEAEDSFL

[6] = target: T6, Itk (Homo sapiens, UniProt Q08881); assay: Kinase inhibition assay (33P transfer), Itk; conditions: read-out: Itk-1
T6 construct: Kinases are expressed as either kinase domains or full length constructs; made in house
T6 sequence (Q08881 1-620): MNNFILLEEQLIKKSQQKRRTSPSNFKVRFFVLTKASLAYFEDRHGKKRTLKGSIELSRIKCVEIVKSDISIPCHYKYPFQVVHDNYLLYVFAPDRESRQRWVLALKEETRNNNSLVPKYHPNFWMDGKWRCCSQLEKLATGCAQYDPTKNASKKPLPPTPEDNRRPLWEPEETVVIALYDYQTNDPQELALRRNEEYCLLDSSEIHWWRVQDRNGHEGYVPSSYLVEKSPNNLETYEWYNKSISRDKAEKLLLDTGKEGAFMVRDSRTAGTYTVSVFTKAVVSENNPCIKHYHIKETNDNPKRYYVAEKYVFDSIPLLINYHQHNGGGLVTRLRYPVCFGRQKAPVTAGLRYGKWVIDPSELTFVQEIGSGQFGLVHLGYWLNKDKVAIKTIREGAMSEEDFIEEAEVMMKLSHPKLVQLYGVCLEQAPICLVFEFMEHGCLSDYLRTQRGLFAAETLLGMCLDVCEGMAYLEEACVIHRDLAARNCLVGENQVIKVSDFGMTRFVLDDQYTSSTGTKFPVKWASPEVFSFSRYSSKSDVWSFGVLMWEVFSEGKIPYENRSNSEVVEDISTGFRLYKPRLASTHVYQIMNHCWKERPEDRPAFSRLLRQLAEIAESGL
Summary of the method: as §2

[7] = target: T7, EGFR (Homo sapiens, UniProt P00533); assay: Kinase inhibition assay (33P transfer), EGFR; conditions: Table 2, kinase inhibition class; read-out: EGFR-1
T7 construct: Kinases are expressed as either kinase domains or full length constructs; made in house
T7 sequence (P00533 25-1210, species assumed): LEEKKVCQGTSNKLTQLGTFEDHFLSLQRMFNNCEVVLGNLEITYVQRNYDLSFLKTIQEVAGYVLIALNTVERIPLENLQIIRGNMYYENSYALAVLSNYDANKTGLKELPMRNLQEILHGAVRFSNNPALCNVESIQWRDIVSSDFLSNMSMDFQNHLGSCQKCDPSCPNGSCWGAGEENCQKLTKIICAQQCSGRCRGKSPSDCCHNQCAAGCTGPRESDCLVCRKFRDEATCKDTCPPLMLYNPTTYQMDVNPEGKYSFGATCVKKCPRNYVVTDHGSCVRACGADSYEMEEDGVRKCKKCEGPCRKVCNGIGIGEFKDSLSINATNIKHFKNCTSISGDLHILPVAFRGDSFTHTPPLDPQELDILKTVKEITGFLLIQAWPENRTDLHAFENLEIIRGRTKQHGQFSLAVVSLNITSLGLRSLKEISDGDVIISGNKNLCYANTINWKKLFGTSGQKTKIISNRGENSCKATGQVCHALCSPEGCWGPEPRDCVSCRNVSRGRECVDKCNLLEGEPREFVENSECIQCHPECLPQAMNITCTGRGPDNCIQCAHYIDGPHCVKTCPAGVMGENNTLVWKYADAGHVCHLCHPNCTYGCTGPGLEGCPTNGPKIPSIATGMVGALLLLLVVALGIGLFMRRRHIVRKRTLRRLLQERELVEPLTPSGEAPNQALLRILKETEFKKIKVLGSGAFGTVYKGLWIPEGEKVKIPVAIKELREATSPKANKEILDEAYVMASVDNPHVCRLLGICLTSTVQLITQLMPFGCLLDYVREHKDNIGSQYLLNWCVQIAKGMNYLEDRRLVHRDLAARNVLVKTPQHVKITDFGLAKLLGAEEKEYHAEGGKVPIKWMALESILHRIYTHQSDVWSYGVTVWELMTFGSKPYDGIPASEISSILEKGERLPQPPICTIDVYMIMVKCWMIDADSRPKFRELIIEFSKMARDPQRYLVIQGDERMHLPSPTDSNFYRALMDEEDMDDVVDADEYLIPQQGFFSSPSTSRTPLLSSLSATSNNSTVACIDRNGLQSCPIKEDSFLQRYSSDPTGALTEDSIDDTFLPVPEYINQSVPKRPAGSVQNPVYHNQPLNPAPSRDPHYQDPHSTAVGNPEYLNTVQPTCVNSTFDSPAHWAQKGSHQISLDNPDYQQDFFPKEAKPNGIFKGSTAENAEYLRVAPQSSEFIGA
Summary of the method: as §2

[8] = target: T8, IGFR-1 (Homo sapiens, UniProt P08069); assay: Kinase inhibition assay, IGFR-1 (Table 2); conditions: Table 2, kinase inhibition class
T8 construct: Kinases are expressed as either kinase domains or full length constructs; made in house

[9] = target: T9, c-Met (Homo sapiens, UniProt P08581); assay: Kinase inhibition assay (33P transfer), c-Met; conditions: Table 2, kinase inhibition class; read-out: Met-1
T9 construct: Kinases are expressed as either kinase domains or full length constructs; made in house
Summary of the method: as §2

[10] = target: T10, Kdr (Homo sapiens, UniProt P35968); assay: Kinase inhibition assay (33P transfer), Kdr; conditions: read-out: KDR-1
T10 construct: Kinases are expressed as either kinase domains or full length constructs; made in house
T10 sequence (P35968 20-1356, species assumed): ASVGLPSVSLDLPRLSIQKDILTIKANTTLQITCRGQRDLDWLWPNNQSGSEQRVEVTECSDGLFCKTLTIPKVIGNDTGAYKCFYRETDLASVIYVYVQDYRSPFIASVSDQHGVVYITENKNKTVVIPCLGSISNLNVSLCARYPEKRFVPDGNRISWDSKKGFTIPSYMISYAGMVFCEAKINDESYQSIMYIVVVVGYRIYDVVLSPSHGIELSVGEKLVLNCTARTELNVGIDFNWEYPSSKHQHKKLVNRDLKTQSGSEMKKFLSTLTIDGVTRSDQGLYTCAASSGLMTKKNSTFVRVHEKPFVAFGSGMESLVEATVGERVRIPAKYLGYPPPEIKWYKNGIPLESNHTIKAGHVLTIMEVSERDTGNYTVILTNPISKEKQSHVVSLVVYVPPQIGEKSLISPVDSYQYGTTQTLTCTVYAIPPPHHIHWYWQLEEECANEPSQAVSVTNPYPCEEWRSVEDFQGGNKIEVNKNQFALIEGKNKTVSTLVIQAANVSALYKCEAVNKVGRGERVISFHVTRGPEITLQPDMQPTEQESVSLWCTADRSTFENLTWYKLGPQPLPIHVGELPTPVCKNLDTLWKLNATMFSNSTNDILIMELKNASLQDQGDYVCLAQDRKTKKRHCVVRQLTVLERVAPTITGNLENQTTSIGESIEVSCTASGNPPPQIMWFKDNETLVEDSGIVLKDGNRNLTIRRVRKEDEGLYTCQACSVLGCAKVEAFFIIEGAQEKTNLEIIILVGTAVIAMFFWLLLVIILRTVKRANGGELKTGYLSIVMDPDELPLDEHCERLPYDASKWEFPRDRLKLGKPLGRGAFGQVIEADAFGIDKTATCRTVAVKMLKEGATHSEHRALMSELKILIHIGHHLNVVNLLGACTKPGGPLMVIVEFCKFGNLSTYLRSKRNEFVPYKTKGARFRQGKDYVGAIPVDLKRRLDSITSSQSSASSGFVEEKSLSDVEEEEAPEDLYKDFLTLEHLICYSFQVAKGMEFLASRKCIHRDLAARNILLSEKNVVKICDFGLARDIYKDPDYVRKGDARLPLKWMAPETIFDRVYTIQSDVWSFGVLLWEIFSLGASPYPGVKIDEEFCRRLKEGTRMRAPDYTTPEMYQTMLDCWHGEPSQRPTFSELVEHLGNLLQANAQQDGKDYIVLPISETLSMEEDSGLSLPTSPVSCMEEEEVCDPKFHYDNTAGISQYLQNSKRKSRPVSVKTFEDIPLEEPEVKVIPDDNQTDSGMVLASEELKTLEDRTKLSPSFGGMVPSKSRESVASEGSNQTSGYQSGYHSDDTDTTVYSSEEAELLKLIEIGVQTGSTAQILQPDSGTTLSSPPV
Summary of the method: as §1

SMILES	IC50 [1]	IC50 [2]	IC50 [3]	IC50 [4]	IC50 [5]	IC50 [6]	IC50 [7]	IC50 [8]	IC50 [9]	IC50 [10]
Cc1cccc(Nc2ncnc(N(C)c3cccc(Br)c3)n2)c1 [Compound 666]	> 12.2 µM	> 12.2 µM	6.48 to 9.45 µM	1.08 to 6.48 µM	9.45 to 12.2 µM	> 12.2 µM	< 1.08 µM	> 12.2 µM	6.48 to 9.45 µM	> 12.2 µM
c1ccc(Cn2ncc3cc(Nc4ncnc(Nc5ccc(N6CCOCC6)cc5)n4)ccc32)cc1 [Compound 729]	5.02 to 7.31 µM	7.31 to 9.4 µM	0.836 to 5.02 µM	0.836 to 5.02 µM	0.836 to 5.02 µM	5.02 to 7.31 µM	< 0.836 µM	0.836 to 5.02 µM	0.836 to 5.02 µM	0.836 to 5.02 µM
Fc1ccc(Nc2ncnc(Nc3ccc4[nH]ncc4c3)n2)cc1Cl [Compound 717]	1.12 to 6.75 µM	> 12.6 µM	1.12 to 6.75 µM	1.12 to 6.75 µM	< 1.12 µM	1.12 to 6.75 µM	< 1.12 µM	1.12 to 6.75 µM	1.12 to 6.75 µM	1.12 to 6.75 µM
Fc1ccc(Nc2ncnc(Nc3ccc4cn[nH]c4c3)n2)cc1Cl [Compound 719]	> 12.6 µM	> 12.6 µM	> 12.6 µM	6.75 to 9.84 µM	> 12.6 µM	> 12.6 µM	< 1.12 µM	> 12.6 µM	> 12.6 µM	1.12 to 6.75 µM
CN(c1cccc(Cl)c1)c1ncnc(Nc2ccc(NC(=O)OC(C)(C)C)cc2)n1 [Compound 750]	> 10.5 µM	> 10.5 µM	0.937 to 5.62 µM	5.62 to 8.2 µM	> 10.5 µM	> 10.5 µM	< 0.937 µM	> 10.5 µM	5.62 to 8.2 µM	> 10.5 µM
COc1ccc(CNc2nc3ccccc3n2-c2ncnc(Nc3cccc(Cc4nnn[nH]4)c3)n2)cc1 [Compound 959]	0.791 to 4.75 µM	0.791 to 4.75 µM	0.791 to 4.75 µM	4.75 to 6.92 µM	0.791 to 4.75 µM	0.791 to 4.75 µM	0.791 to 4.75 µM	0.791 to 4.75 µM	0.791 to 4.75 µM	< 0.791 µM
COc1cc(Nc2ncnc(NCc3ccccc3)n2)cc(OC)c1OC [Compound 630]	> 12.2 µM	> 12.2 µM	1.09 to 6.53 µM	6.53 to 9.53 µM	1.09 to 6.53 µM	> 12.2 µM	< 1.09 µM	9.53 to 12.2 µM	> 12.2 µM	6.53 to 9.53 µM
COc1cc(Nc2ncnc(N(C)c3ccc(F)c(Cl)c3)n2)cc(OC)c1OC [Compound 710]	> 10.7 µM	> 10.7 µM	< 0.953 µM	< 0.953 µM	0.953 to 5.72 µM	> 10.7 µM	< 0.953 µM	5.72 to 8.34 µM	0.953 to 5.72 µM	0.953 to 5.72 µM
COc1ccc(CNc2ncnc(Nc3ccc4c(cnn4Cc4ccccc4)c3)n2)cc1OC [Compound 732]	7.49 to 9.62 µM	> 9.62 µM	> 9.62 µM	> 9.62 µM	> 9.62 µM	> 9.62 µM	7.49 to 9.62 µM	7.49 to 9.62 µM	> 9.62 µM	> 9.62 µM
COc1cc(Nc2ncnc(N(C)c3ccc4c(cnn4Cc4ccccc4)c3)n2)cc(OC)c1OC [Compound 566]	> 9.04 µM	> 9.04 µM	< 0.804 µM	< 0.804 µM	0.804 to 4.82 µM	> 9.04 µM	< 0.804 µM	7.03 to 9.04 µM	0.804 to 4.82 µM	< 0.804 µM
NC(=O)Cc1cccc(Nc2ncnc(-n3c(N)nc4ccccc43)n2)c1 [Compound 955]	> 12.5 µM	> 12.5 µM	1.11 to 6.66 µM	1.11 to 6.66 µM	1.11 to 6.66 µM	1.11 to 6.66 µM	> 12.5 µM	< 1.11 µM	1.11 to 6.66 µM	< 1.11 µM
CN(c1cccc(Cl)c1)c1ncnc(Nc2cc(C(C)(C)C)on2)n1 [Compound 754]	> 12.5 µM	> 12.5 µM	> 12.5 µM	> 12.5 µM	> 12.5 µM	> 12.5 µM	> 12.5 µM	> 12.5 µM	> 12.5 µM	> 12.5 µM
c1ccc(CNc2nc3ccccc3n2-c2ncnc(Nc3cccc(Cc4nnn[nH]4)c3)n2)nc1 [Compound 958]	5.04 to 7.35 µM	5.04 to 7.35 µM	0.839 to 5.04 µM	0.839 to 5.04 µM	0.839 to 5.04 µM	0.839 to 5.04 µM	0.839 to 5.04 µM	0.839 to 5.04 µM	0.839 to 5.04 µM	< 0.839 µM
Nc1nc2ccccc2n1-c1ncnc(Nc2cccc(CC(=O)O)c2)n1 [Compound 544]	> 12.5 µM	> 12.5 µM	> 12.5 µM	> 12.5 µM	1.11 to 6.64 µM	> 12.5 µM	> 12.5 µM	< 1.11 µM	> 12.5 µM	< 1.11 µM
COc1cc(Nc2ncnc(NC3CC3c3ccccc3)n2)cc(OC)c1OCCN1CCOCC1 (centres unmarked) [Compound 563]	> 9.14 µM	> 9.14 µM	< 0.812 µM	0.812 to 4.87 µM	0.812 to 4.87 µM	> 9.14 µM	< 0.812 µM	0.812 to 4.87 µM	4.87 to 7.11 µM	0.812 to 4.87 µM
c1ccc(Cn2ncc3cc(Nc4ncnc(NCc5ccco5)n4)ccc32)cc1 [Compound 728]	1.01 to 6.04 µM	> 11.3 µM	> 11.3 µM	> 11.3 µM	> 11.3 µM	> 11.3 µM	1.01 to 6.04 µM	1.01 to 6.04 µM	1.01 to 6.04 µM	1.01 to 6.04 µM
c1ccc(Cn2ncc3cc(Nc4ncnc(Nc5cc(-c6ccccc6)[nH]n5)n4)ccc32)cc1 [Compound 737]	7.62 to 9.79 µM	7.62 to 9.79 µM	5.22 to 7.62 µM	0.87 to 5.22 µM	5.22 to 7.62 µM	0.87 to 5.22 µM	0.87 to 5.22 µM	0.87 to 5.22 µM	5.22 to 7.62 µM	0.87 to 5.22 µM
CN(c1cccc(Cl)c1)c1ncnc(Nc2ccc(S(C)(=O)=O)cc2)n1 [Compound 749]	> 11.5 µM	> 11.5 µM	1.03 to 6.16 µM	1.03 to 6.16 µM	1.03 to 6.16 µM	> 11.5 µM	< 1.03 µM	> 11.5 µM	1.03 to 6.16 µM	6.16 to 8.98 µM
COc1ccc(Nc2ncnc(NCCCN3CCCCC3C)n2)cc1OC (centres unmarked) [Compound 782]	> 11.6 µM	> 11.6 µM	> 11.6 µM	> 11.6 µM	6.21 to 9.06 µM	> 11.6 µM	> 11.6 µM	> 11.6 µM	> 11.6 µM	> 11.6 µM
COc1ccc(Cl)cc1Nc1ncnc(Nc2cc(OC)c(OC)c(OC)c2)n1 [Compound 627]	> 10.8 µM	> 10.8 µM	< 0.957 µM	0.957 to 5.74 µM	< 0.957 µM	0.957 to 5.74 µM	0.957 to 5.74 µM	< 0.957 µM	8.38 to 10.8 µM	0.957 to 5.74 µM
